Reference: patent publication US4965280A, “Antifungal carbinols” (E. I. Du Pont de Nemours and Company, priority 1989, dated 1990)
Values after ≈ are worked out from the molar mass of the structure shown. Read-outs that look alike come from different tables or passages of the source.

Assays:
[1] = test system: Candida albicans ATCC 11651; assay: In vivo systemic Candida infection in mice, primary assay; design: species or system Candida albicans; CF-1 female mice; settings: Candida albicans, 150 mg/kg per day, read-out: % Survival
Summary of the method: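 CF-1 female mice (20 g, 10 per group) were infected IV with 0.2 ml of 1×10^7/ml C. albicans ATCC 11651, then given test compound subcutaneously at 50 or 150 mg/kg/day at 1 and 6 h post-infection and once daily for three more days. Survival was followed for 21 days against infected untreated mice; ≥70% protection at 14 days was scored active.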

[2] = test system: Venturia inaequalis; assay: Example A apple scab; format: in vivo; settings: read-out: disease control rating, Ex. A
Summary of the method: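 First, compounds are taken up in acetone amounting to 6% of the final volume. Next, they are suspended in purified water with 250 ppm TREM 014 at 100 or 20 ppm. Finally, seedlings of apple are sprayed until run-off.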

[3] = test system: Cercosporidium personatum; assay: Example B Peanut Late Leafspot; format: in vivo; settings: Nothopassalora personata, read-out: disease control rating, Ex. B
Summary of the method: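 Dose 100 or 20 ppm; vehicle acetone 6% v/v final in water + 250 ppm surfactant; applied by spraying peanut seedlings to run-off.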

[4] = test system: Botrytis cinerea; assay: Example C bean grey mold; format: in vivo; settings: Botrytis cinerea, 24 h, read-out: disease control rating, Ex. C
Summary of the method: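 At 20 or 100 ppm, each compound was applied as an aqueous suspension (acetone 6% final; TREM 014 250 ppm) sprayed onto young broad bean plants to the point of run-off.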

[5] = test system: Erysiphe graminis f. sp. tritici; assay: Example D wheat powdery mildew; format: in vivo; settings: Blumeria graminis, 144 h, read-out: disease control rating, Ex. D
Summary of the method: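 First, compound taken up in acetone, 6% of the end volume. Next, suspended in water with 250 ppm polyhydric alcohol esters at 100 or 20 ppm. Last, applied to wheat seedlings until run-off.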

[6] = test system: Pyricularia oryzae; assay: whole plant or invertebrate; format: in vivo; settings: Pyricularia oryzae, 120 h; for pest or weed control at 100 ppm: read-out: disease control rating, Ex. E, 100 PPM
[7] = test system: Rhizoctonia solani; assay: Example F rice sheath blight; format: in vivo; settings: Rhizoctonia solani, 144 h, read-out: disease control rating, Ex. F
Summary of the method: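 Application rates were 100 or 20 ppm, delivered as a foliar spray to the point of run-off on rice seedlings. The formulation used 6% acetone in water with 250 ppm surfactant.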

[8] = test system: Puccinia recondita; assay: Example G wheat leaf rust; format: in vivo; settings: read-out: disease control rating, Ex. G
[9] = test system: Phytophthora infestans; assay: whole plant or invertebrate; format: in vivo; settings: Phytophthora infestans, in Solanum lycopersicum, read-out: disease control rating, Ex. H, 100 PPM
[10] = test system: Plasmorpara viticola; assay: Example I grape downy mildew; format: in vivo; settings: read-out: disease control rating, Ex. I
Summary of the method: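 First, each compound is taken up in acetone amounting to 6% of the final volume. It is then suspended in purified water containing 250 ppm of the polyhydric alcohol ester surfactant TREM 014, at 100 or 20 ppm. Finally, the suspension is sprayed onto grape seedlings until run-off.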

[11] = test system: Pythium aphanadermatum; assay: Example J cucumber damping off; format: in vivo; settings: Pythium, 336 h; 5 kg/ha; read-out: disease control rating, Ex. J
Experimental: […] Seeds and soil were then inoculated with a mixture of sand, cereal and mycelium of the fungus Pythium aphanadermatum, causal agent of cucumber damping off, and incubated in a growth chamber at 30° C. for 14 days. Disease ratings were then made.

[12] = test system: Fusarium oxysporum f. sp. cucumerinum; assay: Example L cucumber wilt; format: in vivo; settings: 336 h, 5 kg/ha, read-out: disease control rating, Ex. L
Experimental: […] Seeds and soil were then inoculated with a mixture of sand, cereal and mycelium of the fungus Fusarium oxysporum f. sp. cucumerinum, causal agent of cucumber wilt, and incubated in a growth chamber at 30° C. for 14 days. Disease ratings were then made.

[13] = test system: Candida albicans ATCC 11651; assay: In vitro antifungal MIC, microtiter broth dilution; settings: Candida albicans, ATCC11651, 24 h, read-out: MIC values, C. albicans, 30°, 24 hours
[14] = test system: Aspergillus fumigatus ATCC 28214; assay: In vitro antifungal MIC, microtiter broth dilution; settings: Aspergillus fumigatus, ATCC28214, 24 h, read-out: MIC values, A. fumigatus, 30°, 24 hours
[15] = test system: Rhizoctonia solani; assay: Example K cotton blight; format: in vivo; settings: 336 h, 5 kg/ha, read-out: disease control rating, Ex. K
Experimental: […] Seeds and soil were then inoculated with a mixture of sand, cereal and mycelium of the fungus Rhizoctonia solani, causal agent of cotton blight, and incubated in a growth chamber at 30° C. for 14 days. Disease ratings were then made.

[16] = test system: Sclerotium rolfsii; assay: Example M southern blight; format: in vivo; settings: Agroathelia rolfsii, 336 h; 5 kg/ha; read-out: disease control rating, Ex. M
Experimental: […] Seeds and soil were then inoculated with a mixture of sand, cereal and mycelium of the fungus Sclerotium rolfsii, causal agent of sourthern blight, and incubated in a growth chamber at 30° C. for 14 days. Disease ratings were then made.

SMILES	responders at 150 mg/kg ([1]; ATCC11651, 168 h, day 7) [%]	responders at 150 mg/kg ([1]; ATCC11651, 336 h, day 14) [%]	responders at 150 mg/kg ([1]; ATCC11651, 504 h, day 21) [%]	pest or weed control at 100 ppm [2] [%]	pest or weed control at 100 ppm [3] [%]	pest or weed control at 100 ppm [4] [%]	pest or weed control at 100 ppm [5] [%]	pest or weed control at 100 ppm [6] [%]	pest or weed control at 100 ppm [7] [%]	pest or weed control at 100 ppm [8] [%]	pest or weed control at 100 ppm [9] [%]	pest or weed control at 100 ppm [10] [%]	pest or weed control at 5000 g/ha [11] [%]	pest or weed control at 5000 g/ha [12] [%]	MIC [13] [µg/mL]	MIC [14] [µg/mL]	pest or weed control at 5000 g/ha [15] [%]	pest or weed control at 5000 g/ha [16] [%]	other results
C=C(c1cccc(F)c1)C(O)(Cn1cncn1)c1ccc(F)cc1 (centres unmarked) [Example 15]	100	90	60	100	100	99	100	1	93	100	26	0	0	0	0.1 (≈ 0.305 µM)	50 (≈ 153 µM)			
C=C(c1cccc(F)c1)C(O)(Cn1cncn1)c1ccc(Cl)cc1 (centres unmarked) [Example 17]	100	90	70			89		0	81		0	42	0		0.03 (≈ 0.0873 µM)	12.5 (≈ 36.4 µM)	0	0	pest or weed control at 20 ppm ([2]; 20 PPM): 80%; pest or weed control at 20 ppm ([3]; 20 PPM): 100%; pest or weed control at 20 ppm ([4]; 20 PPM): 57%; pest or weed control at 20 ppm ([5]; 20 PPM): 95%; pest or weed control at 20 ppm ([6]; read-out: disease control rating, Ex. E, 20 PPM): 0%; pest or weed control at 20 ppm ([7]; 20 PPM): 0%; pest or weed control at 20 ppm ([8]; 20 PPM): 100%
OC(Cn1cncn1)(c1ccc(F)cc1)C1(c2ccccc2)CO1 (centres unmarked) [Example 1527]	100	70	20	0	100	93	100		35	100	0	0	0	0	0.4 (≈ 1.23 µM)	6.3 (≈ 19.4 µM)			
C=C(c1ccccc1Cl)C(O)(Cn1cncn1)c1ccccc1F (centres unmarked) [Example 620]	100	100	90	100	100	96	98	51	100	100	0	0	0		0.03 (≈ 0.0873 µM)	0.05 (≈ 0.145 µM)	0	0	
